Test results as given in patent EP4711356A1, “TETRAHYDROCARBAZOLE DERIVATIVE, PHARMACEUTICAL COMPOSITION, AND USE THEREOF” (Nain Biotech (Hangzhou) Co., Ltd., priority 2023, dated 2024).

system: HeLa cells; assay: Cell-based pharmacodynamic assay (CellTiter-Glo proliferation inhibition), HeLa; conditions: human cervical cancer HeLa cells; 72 hours incubation; CellTiter-Glo luminescence; read-out: IC50 against HeLa cells
Experimental: Complete media such as RPMI 1640 (Gibco, A1049101), EMEM (ATCC, 30-2003), DMEM (Gibco, C11995500CP), McCoy's 5A (Gibco, 16600082), and F-12K (ATCC, 30-2004) were prepared by supplementing with varying concentrations of FBS (Biological Industries, 04-002-1A) and 1% Penicillin-Streptomycin (Gibco, 15140122) and was thoroughly mixed. Tumor cell lines including HeLa (ATCC, CCL-2; EMEM + 10% FBS), TOV-21G (Cobioer, CBP60292; 1:1 mixture of MCDB 105 and Medium 199 + 15% FBS), OVCAR-3 (ATCC, HTB-161; RPMI 1640 + 20% FBS + 0.01 mg/ml bovine insulin), SK-OV-3 (ATCC, HTB-77; McCoy's 5A + 10% FBS), A2780 (Cobioer, CBP60283; RPMI 1640 + 10% FBS), OC316 (Cobioer, CBP60620; RPMI 1640 + 10% FBS), HuH-7 (Cobioer, CBP60202; DMEM + 10% FBS), SNU-398 (ATCC, CRL-2233; RPMI 1640 + 10% FBS), NCI-H2286 (ATCC, CRL-5938; RPMI 1640 + 5% FBS), NCI-H82 (ATCC, HTB-175; RPMI 1640 + 10% FBS), A549 (ATCC, CCL-185; F-12K + 10% FBS), SK-MEL-3 (ATCC, HTB-69; McCoy's 5A + 15% FBS), PSN-1 (Cobioer, CBP61215; RPMI 1640 + 10% FBS), LoVo (ATCC, CCL-229; F-12K + 10% FBS), DLD-1 (ATCC, CCL-221; RPMI 1640 + 10% FBS), HCT-15 (ATCC, CCL-225; RPMI 1640 + 10% FBS), A498 (ATCC, HTB-44; EMEM + 10% FBS), LNCaP (ATCC, CRL-1740; RPMI 1640 + 10% FBS), SNU-1 (ATCC, CRL-5971; RPMI 1640 + 10% FBS), SCC-9 (Cobioer, CBP60428; DMEM/F12 (1:1) + 10% FBS + 0.5 mM sodium pyruvate + 400 ng/ml hydrocortisone), SU-DHL-5 (ATCC, CRL-2958; RPMI 1640 + 10% FBS), Toledo (ATCC, CRL-2631; RPMI 1640 + 10% FBS), and SJCRH30 (ATCC, CRL-2061; RPMI 1640 + 10% FBS) were thawed. Cells were passaged approximately twice, and those in good growth condition (typically passages 4-6) were selected for experiments. The medium was aspirated, and the cells were washed once with 0.25% trypsin (Invitrogen, 25200-072). The waste liquid was discarded, and 3 mL of fresh trypsin was added to the culture flask for digestion. When the cells began to detach, 9 mL of complete medium was added to neutralize the trypsin digestion, and the mixture was gently mixed. The cell suspension was transferred to a centrifuge tube using a pipette and centrifuged at 1000 rpm for 5 minutes. The supernatant was discarded, and 5 mL of medium was added to the centrifuge tube to gently resuspend the cells evenly. The cell concentration was adjusted to 1×10^4/mL-3×10^4/mL using a cell counter (Beckman Coulter, Vi-cellTM XR). The cell suspension was added to a 96-well plate (Corning, 3903) at 100 µL/well. The plate was labeled with details such as cell name, seeding density, and date, and then placed in a CO2 incubator (Thermo, Thermo 3111) overnight. Test compounds were prepared as 20 mM stock solutions in DMSO (Sigma, D4540-1L) and added to the corresponding cell wells using an HPD300 automated dispenser according to the designed layout. The plates were incubated in a 37°C, 5% CO2 incubator for 72 hours. CellTiter-Glo Buffer was thawed at room temperature. The lyophilized CellTiter-Glo substrate was equilibrated to room temperature. The CellTiter-Glo Buffer was added to the CellTiter-Glo substrate and thoroughly mixed. The cell plates were removed and equilibrated to room temperature, and 50 µL of the mixed CellTiter-Glo reagent was added to each well. The plates were protected from light and shaken for 10 minutes, followed by incubation for 10 minutes. The plates were placed in an Enspire reader (luminescence measurement time: 0.5 s) to record luminescence results. The inhibition rate was calculated using the following formula: Inhibition rate (%) = (1 - (RLU_compound - RLU_blank) / (RLU_DMSO - RLU_blank)) × 100%. Dose-response curves were plotted using XLFit to calculate IC50 values. A four-parameter model was used: [fit = (A + ((B - A) / (1 + ((C/x) ^ D)))]. The test results for HeLa cells are shown in Table 1. Table 1: IC50 values of some test compounds against human cervical cancer HeLa cells

`O=C1CCCc2c1[nH]c1cccc(C(=O)OC3CCNC3)c21` (racemic) [Compound B27] and `O=C1CCCc2c1[nH]c1cccc(C(=O)OC3CC3)c21` [Compound B26] cannot be ordered by IC50: at most 500 nM for the first, at most 200 nM for the second.

`C#CC(C)OC(=O)c1cccc2[nH]c3c(c12)CCCC3=O` (racemic) [Compound B36] and `C#CCC(C)OC(=O)c1cccc2[nH]c3c(c12)CCCC3=O` (racemic) [Compound B114] cannot be ordered by IC50: at most 200 nM for the first, at most 200 nM for the second.

`CC(OC(=O)c1cccc2[nH]c3c(c12)CCCC3=O)C(=O)N(C)C` (racemic) [Compound B37] and `CC(C)OC(=O)c1cccc2[nH]c3c(c12)CCCC3=O` [Compound B17] cannot be ordered by IC50: at most 1000 nM for the first, at most 200 nM for the second.

`CC(OC(=O)c1cccc2[nH]c3c(c12)CCCC3=O)C(F)(F)F` (racemic) [Compound B44] and `O=C1CCCc2c1[nH]c1cccc(C(=O)OCC(F)(F)F)c21` [Compound B46] cannot be ordered by IC50: at most 200 nM for the first, at most 200 nM for the second.

`CCCCNC1CCc2c([nH]c3cccc(C(=O)OCC)c23)C1=O` (racemic) [Compound B103] and `CCOC(=O)c1cccc2[nH]c3c(c12)CCC(NCCO)C3=O` (racemic) [Compound B131] cannot be ordered by IC50: at most 200 nM for the first, at most 500 nM for the second.

`CCC#CC(C)OC(=O)c1cccc2[nH]c3c(c12)CCCC3=O` (racemic) [Compound B110] and `COC(=O)c1cccc2[nH]c3c(c12)CCCC3=O` [Compound B10] cannot be ordered by IC50: at most 200 nM for the first, at most 200 nM for the second.

`C#CCOCC(C)OC(=O)c1cccc2[nH]c3c(c12)CCCC3=O` (racemic) [Compound B111] and `O=C1CCCc2c1[nH]c1cccc(C(=O)OC(CF)CF)c21` [Compound B42] cannot be ordered by IC50: at most 200 nM for the first, at most 200 nM for the second.

`CCOC(=O)c1cccc2[nH]c3c(c12)CCC(N1CCC1)C3=O` (racemic) [Compound B132] and `O=C1CCCc2c1[nH]c1cccc(C(=O)OCC3CC3)c21` [Compound B41] cannot be ordered by IC50: at most 500 nM for the first, at most 200 nM for the second.

`O=C1CCCc2c1[nH]c1cccc(C(=O)OC3CCC34CC4)c21` (racemic) [Compound B136] and `O=C1CCCc2c1[nH]c1cccc(C(=O)OC3CCOC3)c21` (racemic) [Compound B137] cannot be ordered by IC50: at most 200 nM for the first, at most 200 nM for the second.

`CCC(OC(=O)c1cccc2[nH]c3c(c12)CCCC3=O)C1CC1` (racemic) [Compound B138] and `CCCCOC(=O)c1cccc2[nH]c3c(c12)CCCC3=O` [Compound B25] cannot be ordered by IC50: at most 500 nM for the first, at most 200 nM for the second.

`CC(O)CCCOC(=O)c1cccc2[nH]c3c(c12)CCCC3=O` (racemic) [Compound B142] and `O=C1CCCc2c1[nH]c1cccc(C(=O)OCCO)c21` [Compound B31] cannot be ordered by IC50: at most 200 nM for the first, at most 200 nM for the second.

`CCOC(=O)c1cccc2c1c1c(n2C(=O)C2(C)CC2(F)F)C(=O)CCC1` (racemic) [Compound C28] and `CCOC(=O)c1cccc2c1c1c(n2C(=O)C2CCOC(C)(C)C2)C(=O)CCC1` (racemic) [Compound C37] cannot be ordered by IC50: at most 200 nM for the first, at most 200 nM for the second.

`CCOC(=O)c1cccc2c1c1c(n2C(=O)C2CCCCN2C)C(=O)CCC1` (racemic) [Compound C33] and `CCOC(=O)c1cccc2c1c1c(n2C(=O)C(CO)c2ccccc2)C(=O)CCC1` (racemic) [Compound C48] cannot be ordered by IC50: at most 200 nM for the first, at most 200 nM for the second.

`Cc1ccc2[nH]c3c(c2c1)CCCC3=NCC(O)CO` (racemic) [Compound E01] and `Cc1ccc2[nH]c3c(c2c1)CCCC3=NC(CO)C(C)C` (racemic) [Compound E02] cannot be ordered by IC50: at most 500 nM for the first, at most 500 nM for the second.

`CCC(CO)N=C1CCCc2c1[nH]c1cccc(C(=O)OC)c21` (racemic) [Compound E58] and `COC(=O)c1cccc2[nH]c3c(c12)CCCC3=NC(CO)C(C)C` (racemic) [Compound E60] cannot be ordered by IC50: at most 200 nM for the first, at most 200 nM for the second.

`COC(=O)c1cccc2[nH]c3c(c12)CCCC3=NCC(O)CO` (racemic) [Compound E59] and `COC(=O)c1cccc2[nH]c3c(c12)CCC3=O` [Compound B51] cannot be ordered by IC50: at most 200 nM for the first, at most 200 nM for the second.

Going from `Cc1ccc2[nH]c3c(c2c1)C(C)CCC3=NCCO` (single isomer, unassigned) [Compound E41] to `Cc1ccc2[nH]c3c(c2c1)CCC1(CC1)C3=O` [Compound B14], the IC50 rises from at most 500 nM to at least 5000 nM. The first is the more potent here.

`Cc1ccc2[nH]c3c(c2n1)CCCC3=O` [Compound B01] and `COc1ccc2[nH]c3c(c2n1)CCCC3=O` [Compound B09] cannot be ordered by IC50: at most 200 nM for the first, at most 200 nM for the second.

`[2H]C([2H])([2H])c1ccc2[nH]c3c(c2c1)CCCC3=O` [Compound B15] and `CN(C)c1cccc2[nH]c3c(c12)CCCC3=O` [Compound B65] cannot be ordered by IC50: at most 200 nM for the first, at most 200 nM for the second.

`COC(=O)c1ccc(F)c2[nH]c3c(c12)CCCC3=O` [Compound B18] and `COCCOC(=O)c1cccc2[nH]c3c(c12)CCCC3=O` [Compound B38] cannot be ordered by IC50: at most 500 nM for the first, at most 200 nM for the second.

`O=C1CCCc2c1[nH]c1cccc(N3CCn4cnnc4C3)c21` [Compound B19] and `O=C1CCCc2c1[nH]c1cccc(N3CCCC3)c21` [Compound B66] cannot be ordered by IC50: at most 200 nM for the first, at most 200 nM for the second.

`CC1(C)CCN(c2cccc3[nH]c4c(c23)CCCC4=O)C1` [Compound B23] and `O=C1CCCc2c1[nH]c1cccc(N3CCOCC3)c21` [Compound B63] cannot be ordered by IC50: at most 200 nM for the first, at most 200 nM for the second.

`CC(C)(O)C1CN(c2cccc3[nH]c4c(c23)CCCC4=O)C1` [Compound B24] and `CC(C)(C)OC(=O)c1cccc2[nH]c3c(c12)CCCC3=O` [Compound B55] cannot be ordered by IC50: at most 200 nM for the first, at most 200 nM for the second.

`O=C1CCCc2c1[nH]c1cccc(C(=O)OC3CCOCC3)c21` [Compound B30] and `CC(C)(C)COC(=O)c1cccc2[nH]c3c(c12)CCCC3=O` [Compound B40] cannot be ordered by IC50: at most 200 nM for the first, at most 200 nM for the second.

`CCC(=O)Oc1cccc2[nH]c3c(c12)CCCC3=O` [Compound B32] and `CC(C)C(=O)Oc1cccc2[nH]c3c(c12)CCCC3=O` [Compound B33] cannot be ordered by IC50: at most 500 nM for the first, at most 200 nM for the second.

`O=C1CCCc2c1[nH]c1cccc(C(=O)OCc3ccccc3)c21` [Compound B34] and `O=C1CCCc2c1[nH]c1cccc(C(=O)Oc3ccccc3)c21` [Compound B39] cannot be ordered by IC50: at most 500 nM for the first, at most 500 nM for the second.

`O=C1CCCc2c1[nH]c1cccc(C(=O)OCc3ccc(F)cc3)c21` [Compound B43] and `O=C1CCCc2c1[nH]c1cccc(C(=O)OCCC(F)(F)F)c21` [Compound B45] cannot be ordered by IC50: at most 500 nM for the first, at most 200 nM for the second.

`O=C1CCCc2c1[nH]c1cccc(-c3ccccc3)c21` [Compound B48] and `O=C1CCCc2c1[nH]c1cccc(-c3cn[nH]c3)c21` [Compound B58] cannot be ordered by IC50: at most 500 nM for the first, at most 200 nM for the second.

`O=C1CCCc2c1[nH]c1cccc(-c3cnc4[nH]ncc4c3)c21` [Compound B50] and `O=C1CCCc2c1[nH]c1cccc(C3=CCOCC3)c21` [Compound B62] cannot be ordered by IC50: at most 200 nM for the first, at most 200 nM for the second.

`O=C1CCCc2c1[nH]c1cccc(CO)c21` [Compound B56] and `N#Cc1cccc2[nH]c3c(c12)CCCC3=O` [Compound B61] cannot be ordered by IC50: at most 200 nM for the first, at most 200 nM for the second.
